Like-named read-outs stand apart in the source and are kept apart here.
Experiments:
Pyricularia oryzae = assay: microbe, parasite or virus in culture; format: cell-based; conditions: Pyricularia oryzae, 168 h, read-out: Fungal growth (%) PYRIOR
[1] = test system: Colletotrichum orbiculare; assay: Micro titer plate test against Colletotrichum orbiculare causing anthracnose (COLLLA); format: cell-based; conditions: Colletotrichum orbiculare, 168 h, read-out: Fungal growth (%) COLLLA
[2] = test system: Pyrenophora teres (F129L); assay: Micro titer plate test against Pyrenophora teres causing net blotch on barley (PYRNTE F129L); format: cell-based; conditions: 0.25 ppm
Alternaria solani (wt) = assay: microbe, parasite or virus in culture; format: cell-based; conditions: Alternaria solani, 168 h, read-out: Fungal growth (%) ALTESO wt
Leptosphaeria nodorum = assay: Micro titer plate test against Leptosphaeria nodorum causing wheat leaf spots (LEPTNO); format: cell-based; conditions: Parastagonospora nodorum, 168 h; 0.063 ppm; read-out: Fungal growth (%) LEPTNO
Pyrenophora teres (wt) = assay: Micro titer plate test against Pyrenophora teres causing net blotch on barley (PYRNTE wt); format: cell-based; conditions: 168 h, 0.25 ppm, read-out: Fungal growth (%) PYRNTE wt
Microdochium nivale = assay: Micro titer plate test against Microdochium nivale causing snow mould (MONGNI); format: cell-based; conditions: Microdochium nivale, 168 h; 0.016 ppm; read-out: Fungal growth (%) MONGNI
Septoria tritici = assay: microbe, parasite or virus in culture; format: cell-based; conditions: Zymoseptoria tritici, 168 h, read-out: Fungal growth (%) SEPTTR
Cercospora sojina = assay: microbe, parasite or virus in culture; format: cell-based; conditions: Cercospora sojina, 168 h; 4 ppm; read-out: Fungal growth (%) CERCSO
[3] = test system: Alternaria solani (F129L); assay: Micro titer plate test against Alternaria solani causing early blight (ALTESO F129L); format: cell-based; conditions: Alternaria solani, 168 h; 0.016 ppm; read-out: Fungal growth (%) ALTESO F129L
[4] = test system: Phakopsora pachyrhizi (F129L); assay: Protective control of soybean rust on soybeans (PHAKPA P6); format: in vivo; conditions: for % PHAKPA (F129L) Disease level P6 at 4 ppm: protective P6, 4 ppm; for % PHAKPA (F129L) Disease level P6 at 4 ppm / % PHAKPA (F129L) Disease level P6 at 16 ppm: soybean rust F129L; for % PHAKPA (F129L) Disease level P6 at 16 ppm: protective P6, 16 ppm
[5] = test system: Phakopsora pachyrhizi (F129L); assay: Protective control of soybean rust on soybeans (PHAKPA P2); format: in vivo; conditions: for PHAKPA (F129L) Disease level (%) P2 at 4 ppm / PHAKPA (F129L) Disease level (%) P2 at 16 ppm: P2 protective, % diseased leaf area; for % PHAKPA (F129L) Disease level P2 at 4 ppm: protective P2, 4 ppm; for % PHAKPA (F129L) Disease level P2 at 4 ppm / % PHAKPA (F129L) Disease level P2 at 16 ppm: soybean rust F129L; for % PHAKPA (F129L) Disease level P2 at 16 ppm: protective P2, 16 ppm
[6] = test system: Phakopsora pachyrhizi (wt); format: in vivo; conditions: Qo I-sensitive wt isolate (0% F129L)

| Structure (SMILES) | activity at 0.016 ppm (Pyricularia oryzae) [%] | activity at 0.063 ppm [1] [%] | Fungal growth (%) PYRNTE F129L [2] [%] | activity at 0.063 ppm (Leptosphaeria nodorum) [%] | activity at 0.25 ppm (Pyrenophora teres (wt)) [%] | activity at 0.016 ppm (Microdochium nivale) [%] | activity at 0.25 ppm (Septoria tritici) [%] | activity at 4 ppm (Cercospora sojina) [%] | activity at 0.016 ppm [3] [%] | % PHAKPA (F129L) Disease level P6 at 4 ppm [4] [%] | % PHAKPA (F129L) Disease level P6 at 16 ppm [4] [%] | % PHAKPA (F129L) Disease level P2 at 4 ppm [5] [%] | % PHAKPA (F129L) Disease level P2 at 16 ppm [5] [%] | also measured |
| --- | --- | --- | --- | --- | --- | --- | --- | --- | --- | --- | --- | --- | --- | --- |
| CO/N=C(/C(=O)OC)c1cccc(C)c1CO/N=C(\C)c1cccc(C)c1 [Ex. 76] | 43 | 39 | 66 | 39 | 39 | 35 | 0 | 28 | 37 | 9 | 0 | 30 | 3 | activity at 0.016 ppm (Alternaria solani (wt)): 55%; PHAKPA (F129L) Disease level (%) P2 at 4 ppm [5]: 35%; PHAKPA (F129L) Disease level (%) P2 at 16 ppm [5]: 1% |
| CO/N=C(/C(=O)OC)c1cccc(C)c1CO/N=C(\C)c1cccc(Cl)c1 [Ex. 153] | 50 | 55 |  | 55 | 31 | 75 | 0 | 26 | 68 | 22 | 1 | 12 | 3 | activity at 0.016 ppm (Alternaria solani (wt)): 71%; PHAKPA (F129L) Disease level (%) P2 at 4 ppm [5]: 19%; PHAKPA (F129L) Disease level (%) P2 at 16 ppm [5]: 5% |
| CNC(=O)/C(=N/OC)c1cccc(C)c1CO/N=C(\C)c1cccc(Cl)c1 [Ex. 157] | 15 | 63 | 58 |  | 54 | 56 | 20 | 36 | 57 | 1 | 0 | 1 | 0 | activity at 0.25 ppm (Alternaria solani (wt); 0.25 ppm): 27%; PHAKPA (F129L) Disease level (%) P6 at 4 ppm ([4]; P6 protective, 4 ppm, % diseased leaf area): 2%; PHAKPA (F129L) Disease level (%) P6 at 16 ppm ([4]; P6 protective, 16 ppm, % diseased leaf area): 1% |
| Cc1cccc(-n2nnn(C)c2=O)c1COc1ccn(-c2ccc(Cl)cc2)n1 [drawing 930] |  |  |  |  |  |  |  |  |  |  |  |  |  | PHAKPA P1 DL Disease level (%) ([6]; 0.3 ppm): 78%; PHAKPA P1 DL Disease level (%) ([6]; 1 ppm): 80%; PHAKPA P1 DL Disease level (%) ([6]; 3 ppm): 77%; PHAKPA P1 DL Disease level (%) ([6]; 10 ppm): 48%; PHAKPA P1 DL Disease level (%) ([6]; 30 ppm): 30%; PHAKPA P1 DL Disease level (%) ([6]; 100 ppm): 18%; PHAKPA P1 DL Disease level (%) ([6]; 300 ppm): 5% |
| CO/N=C(/C(=O)OC)c1cccc(C)c1CO/N=C(\C)c1cccc(OC(F)(F)F)c1 [drawing 940] |  |  | 84 | 79 | 87 | 86 |  |  |  |  |  |  |  |  |
| CO/N=C(/C(=O)OC)c1cccc(C)c1CO/N=C(\SC)c1cccc(C)c1 [drawing 950] | 87 | 81 |  |  |  | 69 | 61 |  |  |  |  |  |  |  |
| CO/N=C(/C(=O)OC)c1cccc(C)c1CO/N=C(/c1cccc(C)c1)C1CC1 [drawing 951] | 82 | 93 | 87 |  |  | 84 | 89 |  |  |  |  |  |  |  |
| CNC(=O)/C(=N/OC)c1cccc(C)c1CO/N=C(\SC)c1cccc(Cl)c1 [drawing 968] |  |  | 80 |  | 76 | 100 |  | 78 |  |  |  |  |  |  |

Reference: patent US20230172204A1 (BASF SE, priority 2020, published 2023)
